Results on two compounds are retold here after ChEMBL document CHEMBL4130457, “Discovery of AZD-2098 and AZD-1678, Two Potent and Bioavailable CCR4 Receptor Antagonists” (ACS Med Chem Lett, 2017).

Structures are written as SMILES. ≈ marks a conversion by molar mass, not a printed value. Calls of active or inactive are those of the source. The calls are words filed in the database; no cut-off is given here.

Data set [1] is described as follows: Protein binding in human plasma. Format: ADME, cell-free. The conditions noted are these: read-out: PPB (converted).
Data set [2] addresses C-C chemokine receptor type 8 (Homo sapiens) (UniProt P51685). The data set can be described thus: Antagonist activity at CCR8 (unknown origin) at 10 uM. Format: functional.
Data set [3] has as its target T1, C-C chemokine receptor type 4 (Mus musculus, UniProt P51680).
T1 sequence (P51680 whole entry): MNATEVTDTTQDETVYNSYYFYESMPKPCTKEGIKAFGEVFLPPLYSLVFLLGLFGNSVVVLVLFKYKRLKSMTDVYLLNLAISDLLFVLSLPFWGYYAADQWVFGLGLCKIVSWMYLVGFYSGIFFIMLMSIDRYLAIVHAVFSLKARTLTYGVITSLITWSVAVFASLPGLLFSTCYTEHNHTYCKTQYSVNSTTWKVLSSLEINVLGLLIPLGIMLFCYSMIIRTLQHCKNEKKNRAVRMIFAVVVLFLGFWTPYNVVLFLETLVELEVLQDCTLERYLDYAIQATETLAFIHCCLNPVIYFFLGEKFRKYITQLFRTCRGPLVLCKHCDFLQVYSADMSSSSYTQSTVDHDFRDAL
Kind of data set: Antagonist activity at mouse CCR4. It is filed as functional.

For data set [4], the target named is C-C chemokine receptor type 2 (Homo sapiens) (UniProt P41597). The data set can be described thus: Antagonist activity at CCR2b (unknown origin) at 10 uM.
For data set [5], the target named is T2, C-C chemokine receptor type 7 (Homo sapiens) (UniProt P32248).
T2 sequence (whole entry): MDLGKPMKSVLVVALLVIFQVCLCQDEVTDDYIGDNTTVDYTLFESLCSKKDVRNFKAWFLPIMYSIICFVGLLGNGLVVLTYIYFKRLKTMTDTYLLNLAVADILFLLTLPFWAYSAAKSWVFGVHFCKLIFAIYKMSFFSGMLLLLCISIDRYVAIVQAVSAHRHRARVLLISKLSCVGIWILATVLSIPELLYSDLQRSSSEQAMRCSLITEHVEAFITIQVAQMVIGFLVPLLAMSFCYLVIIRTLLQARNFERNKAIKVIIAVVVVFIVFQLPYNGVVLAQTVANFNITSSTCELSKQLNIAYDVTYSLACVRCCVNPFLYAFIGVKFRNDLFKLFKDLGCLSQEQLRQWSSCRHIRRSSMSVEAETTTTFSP
Kind of data set: Antagonist activity at CCR7 (unknown origin) at 10 uM. It is filed as functional.

Data set [6] deals with T3, C-C chemokine receptor type 1 (Homo sapiens) (UniProt P32246).
T3 sequence (whole entry): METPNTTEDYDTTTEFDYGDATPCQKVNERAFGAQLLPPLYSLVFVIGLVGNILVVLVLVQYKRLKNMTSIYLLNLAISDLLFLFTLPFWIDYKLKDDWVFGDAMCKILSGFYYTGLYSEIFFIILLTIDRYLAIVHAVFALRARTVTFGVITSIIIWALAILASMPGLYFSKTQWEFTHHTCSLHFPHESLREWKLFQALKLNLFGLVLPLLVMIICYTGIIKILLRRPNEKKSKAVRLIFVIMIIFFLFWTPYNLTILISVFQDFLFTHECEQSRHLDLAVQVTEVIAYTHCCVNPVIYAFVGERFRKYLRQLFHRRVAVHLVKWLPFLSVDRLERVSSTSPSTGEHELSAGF
Kind of data set: Antagonist activity at CCR1 (unknown origin) at 10 uM. Format: functional.

In data set [7] the target is T4, C-X-C chemokine receptor type 2 (Homo sapiens) (UniProt P25025).
T4 sequence (whole entry): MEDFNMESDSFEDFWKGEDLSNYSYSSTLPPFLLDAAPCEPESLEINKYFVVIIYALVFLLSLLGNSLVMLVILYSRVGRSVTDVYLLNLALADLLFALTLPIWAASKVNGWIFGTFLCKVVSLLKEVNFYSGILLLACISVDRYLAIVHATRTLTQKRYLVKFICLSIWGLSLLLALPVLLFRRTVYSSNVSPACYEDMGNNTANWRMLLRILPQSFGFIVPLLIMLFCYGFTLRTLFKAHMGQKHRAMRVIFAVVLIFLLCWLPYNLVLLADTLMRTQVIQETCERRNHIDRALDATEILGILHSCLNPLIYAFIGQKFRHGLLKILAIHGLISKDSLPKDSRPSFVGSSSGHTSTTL
Kind of data set: Antagonist activity at CXCR2 (unknown origin) at 10 uM. Format: functional.

Data set [8] deals with T5, C-X-C chemokine receptor type 1 (Homo sapiens) (UniProt P25024).
T5 sequence (whole entry): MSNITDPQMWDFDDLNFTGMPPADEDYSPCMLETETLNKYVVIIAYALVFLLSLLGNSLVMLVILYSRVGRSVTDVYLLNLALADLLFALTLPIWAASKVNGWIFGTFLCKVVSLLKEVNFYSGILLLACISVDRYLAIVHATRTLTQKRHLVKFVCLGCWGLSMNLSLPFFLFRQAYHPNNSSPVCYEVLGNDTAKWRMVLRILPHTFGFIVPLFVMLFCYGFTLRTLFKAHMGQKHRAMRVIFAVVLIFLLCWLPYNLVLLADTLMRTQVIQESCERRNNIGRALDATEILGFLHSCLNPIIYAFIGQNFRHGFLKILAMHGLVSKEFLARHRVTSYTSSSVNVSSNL
Kind of data set: Antagonist activity at CXCR1 (unknown origin) at 10 uM. It is filed as functional.

Data set [9] in a line: Protein binding in rat plasma. It is filed as ADME, cell-free. The conditions noted are these: read-out: PPB (converted).
Data set [10] in a line: Oral bioavailability in mouse. As to conditions: in vivo. Format: ADME, organism-based.
Data set [11] in a line: Volume of distribution at steady state in mouse. Format: ADME, organism-based. As to conditions: in vivo, read-out: Vdss.
Data set [12] can be described thus: Oral bioavailability in rat. It is filed as ADME, organism-based. The conditions noted are these: in vivo.
Data set [13] is described as follows: Volume of distribution at steady state in rat. It is filed as ADME, organism-based. As to conditions: in vivo, read-out: Vdss.
The nature of data set [14]: Antagonist activity at rat CCR4.
Data set [15] in a line: Lipophilicity, log D of the compound. Format: physicochemical. The conditions noted are these: octanol/water.
The target in data set [16] is T6, C-C chemokine receptor type 4 (Homo sapiens, UniProt P51679).
T6 sequence (P51679 whole entry): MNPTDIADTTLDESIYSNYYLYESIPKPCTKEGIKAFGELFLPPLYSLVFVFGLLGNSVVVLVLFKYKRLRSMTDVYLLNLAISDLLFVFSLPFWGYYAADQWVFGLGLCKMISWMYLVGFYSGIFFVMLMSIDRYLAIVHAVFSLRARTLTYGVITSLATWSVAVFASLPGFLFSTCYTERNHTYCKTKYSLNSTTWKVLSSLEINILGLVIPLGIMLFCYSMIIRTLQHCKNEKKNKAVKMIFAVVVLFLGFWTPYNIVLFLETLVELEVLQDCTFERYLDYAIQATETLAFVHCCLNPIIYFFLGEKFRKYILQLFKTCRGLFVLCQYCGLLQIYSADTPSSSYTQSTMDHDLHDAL
The data set can be described thus: Antagonist activity at recombinant human CCR4 expressed in CHO-K1 cells assessed as inhibition of CCL22 induced Ca2+ mobilization after 2 hrs by FMAT based fluorescence assay. Format: functional, cell-based. (In general: A change in cytosolic calcium serves as a functional read-out for many receptors and channels.)

Data set [17] can be described thus: Protein binding in mouse plasma. It is filed as ADME, cell-free. As to conditions: read-out: PPB (converted).
The nature of data set [18]: Solubility of the compound. It is filed as physicochemical.
Data set [19] addresses C-C chemokine receptor type 5 (Homo sapiens) (UniProt P51681). The data set can be described thus: Antagonist activity at CCR5 (unknown origin) at 10 uM. It is filed as functional.
The target in data set [20] is T6, C-C chemokine receptor type 4. Kind of data set: Antagonist activity at human CCR4 expressed in HEK cells coexpressing CD4+ assessed as inhibition of CCL22 induced Ca2+ mobilization. Format: functional, cell-based.
Data set [21] is described as follows: Half life in rat at 9 umol/kg, po or 3 umol/kg, iv. It is filed as ADME, organism-based. As to conditions: in vivo.
The nature of data set [22]: Clearance in rat at 9 umol/kg, po or 3 umol/kg, iv. Format: ADME, organism-based. As to conditions: in vivo.
A short description of data set [23]: Oral bioavailability in rat at 9 umol/kg. As to conditions: in vivo. It is filed as ADME, organism-based.
The nature of data set [24]: Half life in dog at 9 umol/kg, po or 3 umol/kg, iv. The conditions noted are these: in vivo. Format: ADME, organism-based, Canis lupus familiaris.
A short description of data set [25]: Lipophilicity, log P of the compound. Format: physicochemical. The conditions noted are these: octanol/water.
Data set [26] can be described thus: Clearance in dog at 9 umol/kg, po or 3 umol/kg, iv. Format: ADME, organism-based, Canis lupus familiaris. As to conditions: in vivo.
The target of data set [27] is T7, C-C chemokine receptor type 4 (Canis lupus familiaris, UniProt Q8MJW8).
T7 sequence (Q8MJW8 whole entry): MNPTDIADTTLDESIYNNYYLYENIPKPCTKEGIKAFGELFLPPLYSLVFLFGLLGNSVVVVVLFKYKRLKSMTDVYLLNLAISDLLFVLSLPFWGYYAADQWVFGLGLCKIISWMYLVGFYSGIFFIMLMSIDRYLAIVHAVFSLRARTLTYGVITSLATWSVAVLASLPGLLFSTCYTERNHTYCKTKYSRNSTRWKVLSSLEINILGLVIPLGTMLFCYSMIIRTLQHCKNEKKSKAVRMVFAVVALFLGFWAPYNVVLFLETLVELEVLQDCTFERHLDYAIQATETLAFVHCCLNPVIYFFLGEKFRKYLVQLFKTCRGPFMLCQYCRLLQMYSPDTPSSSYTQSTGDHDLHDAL
Kind of data set: Antagonist activity at dog CCR4.

Data set [28] is described as follows: Oral bioavailability in dog at 9 umol/kg. Format: ADME, organism-based, Canis lupus familiaris. The conditions noted are these: in vivo.
Data set [29] is described as follows: Volume of distribution at steady state in rat at 9 umol/kg, po or 3 umol/kg, iv. It is filed as ADME, organism-based. The conditions noted are these: in vivo, read-out: Vdss.
Data set [30] concerns Hepatocyte. The data set can be described thus: Stability in human hepatocytes assessed per million cells.
For data set [31], the target named is T8, C-C chemokine receptor type 4 (Homo sapiens) (UniProt P51679).
T8 sequence (whole entry): T6 sequence (P51679 whole entry)
The data set can be described thus: Agonist activity at CCR4 (unknown origin) up to 10 uM. Format: functional.

Data set [32] is described as follows: Volume of distribution at steady state in dog at 9 umol/kg, po or 3 umol/kg, iv. Format: ADME, organism-based, Canis lupus familiaris. The conditions noted are these: in vivo, read-out: Vdss.

Sequence of C-C chemokine receptor type 8 (Homo sapiens) (P51685 whole entry): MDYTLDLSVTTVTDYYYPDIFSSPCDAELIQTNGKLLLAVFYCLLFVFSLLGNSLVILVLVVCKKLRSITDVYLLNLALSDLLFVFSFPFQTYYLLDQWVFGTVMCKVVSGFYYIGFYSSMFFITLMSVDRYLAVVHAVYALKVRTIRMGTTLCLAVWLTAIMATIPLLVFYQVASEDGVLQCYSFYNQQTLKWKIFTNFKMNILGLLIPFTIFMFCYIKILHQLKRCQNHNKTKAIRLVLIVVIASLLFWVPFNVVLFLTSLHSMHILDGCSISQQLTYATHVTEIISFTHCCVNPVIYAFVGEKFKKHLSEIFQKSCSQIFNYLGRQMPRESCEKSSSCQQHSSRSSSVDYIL
Sequence of C-C chemokine receptor type 2 (Homo sapiens) (P41597 whole entry, looked up): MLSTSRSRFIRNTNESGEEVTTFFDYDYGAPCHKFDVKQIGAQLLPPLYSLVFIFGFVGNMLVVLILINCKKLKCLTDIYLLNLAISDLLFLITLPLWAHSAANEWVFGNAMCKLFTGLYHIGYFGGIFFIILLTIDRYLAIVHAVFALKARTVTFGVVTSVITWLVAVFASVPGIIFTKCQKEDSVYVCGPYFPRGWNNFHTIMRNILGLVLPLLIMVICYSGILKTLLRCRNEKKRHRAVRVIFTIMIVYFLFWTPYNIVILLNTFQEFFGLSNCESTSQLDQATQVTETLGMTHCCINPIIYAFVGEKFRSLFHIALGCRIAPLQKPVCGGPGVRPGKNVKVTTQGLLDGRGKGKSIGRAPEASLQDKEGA
Sequence of C-C chemokine receptor type 5 (Homo sapiens) (P51681 whole entry, looked up): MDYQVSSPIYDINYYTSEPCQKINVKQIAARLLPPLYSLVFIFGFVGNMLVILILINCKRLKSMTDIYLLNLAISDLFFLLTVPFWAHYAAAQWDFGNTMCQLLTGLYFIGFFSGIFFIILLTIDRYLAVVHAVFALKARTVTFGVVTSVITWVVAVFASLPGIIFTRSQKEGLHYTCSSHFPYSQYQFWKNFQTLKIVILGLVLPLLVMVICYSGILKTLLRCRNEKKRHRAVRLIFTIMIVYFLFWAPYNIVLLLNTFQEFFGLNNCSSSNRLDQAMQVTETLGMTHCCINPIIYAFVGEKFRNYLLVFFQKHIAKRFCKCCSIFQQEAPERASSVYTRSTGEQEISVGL

Turning to `COc1nc(Br)cnc1NS(=O)(=O)c1ccc(Cl)s1`, the fraction unbound was less than 0.001 in data set [1], 0.0015 in data set [9] and 0.033 in data set [17]. The result in data set [2], in data set [4], in data set [5], in data set [6], in data set [7] and in [8] was inactive. Besides, the outcome in data set [19] was inactive. Further, the IC50 (commonly the concentration at which inhibition is half-maximal) in [3] is 5.01 nM; in [16] it was 63.1 nM. For the same compound, the bioavailability (in general, dose-corrected exposure relative to a reference, in per cent) in data set [10] was 86%; in data set [12], 45%. The Vd in [11] and in [13] was 0.1 L/kg each time. For the same compound, in data set [14], the pIC50 (usually the negative decadic logarithm of the IC50, by convention in mol/L) is 8.3. In addition, the logD – broadly, the decadic logarithm of the distribution of all forms, ionised or not, between an organic phase and buffer at a given pH – in [15] is 1.1. For the same compound, the concentration in solution in data set [18] (solubility) came to 340 µg/mL (≈ 884 µM).
With `COc1nc(F)cnc1NS(=O)(=O)c1cccc(Cl)c1Cl`, the fraction unbound in data set [1] was 0.006. The result in data set [2], in data set [4], in [5], in data set [6], in data set [7] and in data set [8] was inactive. The result in data set [31] and in data set [19] was inactive. Moreover, the IC50 in [20] was 3.98 nM; in [3], 1 nM; in data set [27] it was 3.16 nM; in data set [16] it was 2.51 nM. The half-life (usually the time in which the quantity being followed falls by half) in [21] is 2.5 h; in data set [24] it was 0.5 h. For the same compound, the clearance in data set [22] is 2.3 mL/min/kg; in [26] it was 3.7 mL/min/kg. Further, the bioavailability in [23] and in [28] was 100% each time. The compound also showed a pIC50 in data set [14] of 9. The logP (commonly the decadic logarithm of the partition coefficient of the neutral form, usually between octanol and water) in [25] came out at 3.1. For the same compound, in data set [15], the logD worked out at 0.6. Further, the Vd in data set [29] and in [32] was 0.2 L/kg throughout. The Stability in data set [30] was less than 1 uL/ml. For the same compound, in [18], the concentration in solution (solubility) came to 1300 µg/mL (≈ 3690 µM).
